Assay results: patent US20240425523A1, “Compounds for the Degradation of EGFR Kinase” (Beigene Switzerland GMBH, priority 2023, published 2024)

Experiments:
Assay type in all cases: cell-based
[1] = molecular target: p-EGFR Del19/C797S (H1975-clone #23 cells) (Homo sapiens, UniProt P00533); experiment: Cell p-EGFR inhibition assay, HTRF, H1975-clone#23 (DEL19/C797S) cells; settings: 16 h treatment; for Imax (%): maximum percentage of pEGFR inhibition; for IC50: pEGFR inhibition
Outline: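 Phospho-EGFR read by overnight HTRF on lysates, normalized to DMSO-treated high control; IC50, Hill slope and Imax fitted. Compounds were applied for 16 h (10 uM top, 5-fold steps, 8 doses) to an H1975 single clone carrying only exogenous Del19/C797S EGFR after sgRNA knockout of endogenous copies.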

[2] = molecular target: T1, EGFR L858R (BaF3-L858R cells) (Homo sapiens, UniProt P00533, L858R); experiment: Cell degradation of EGFR, HTRF assay, BaF3-L858R cells; settings: 16 h treatment; for DC50: EGFR degradation; for Dmax: maximum percentage of degradation
T1 construct: host or cells: BaF3
Outline: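 EGFR L858R levels measured by HTRF antibody pair in lysed BaF3-L858R cells after 16 h compound exposure (8-point 5-fold series from 10 uM final, 37° C). Degradation is relative to DMSO-only cells; DC50 fitted with Hill equation, Dmax taken as the largest percent loss.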

[3] = molecular target: T2, EGFR-L858R/C797S (H1975-clone #8 cells) (Homo sapiens, UniProt P00533, C797S/L858R); experiment: Cell degradation of EGFR, HTRF assay, H1975-clone#8 (L858R/C797S) cells; settings: 16 h treatment; for DC50: EGFR degradation; for Dmax: maximum percentage of degradation
T2 construct: expressed in transfected cells; host or cells: H1975 (endogenous EGFR knocked out, clone #8)

[4] = molecular target: T3, p-EGFR L858R (BaF3-L858R cells) (Homo sapiens, UniProt P00533, L858R); experiment: Cell p-EGFR inhibition assay, HTRF, BaF3-L858R cells; settings: 16 h treatment; for Imax (%): maximum percentage of pEGFR inhibition; for IC50: pEGFR inhibition
T3 construct: host or cells: BaF3
Outline: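 BaF3-L858R cells treated 16 h at 37 °C, 5% CO2 with compound from 10 uM top, 5-fold dilutions, 8 doses, in 0.1% DMSO medium. Lysates read overnight by HTRF p-EGFR antibodies; IC50 fitted to four-parameter curve against DMSO high control.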

| Imax (%) [1] | IC50 [1] | DC50 [2] | Dmax [2] | DC50 [3] | Dmax [3] | Imax (%) [4] | IC50 [4] | Compound |
| --- | --- | --- | --- | --- | --- | --- | --- | --- |
| 99.76% | 2.81 nM | 1.61 nM | 91.9% | 3.21 nM | 88.8% | 85.84% | 3.09 nM | Cc1cc2cc(n1)-c1c(C)nn(C)c1OC[C@H]1CC[C@H](C1)CN1/C(=N/C2=O)Nc2ccc(N3C[C@@H](C)N(C4CCN(c5cc(F)c([C@H]6CCC(=O)NC6=O)c(F)c5)CC4)C[C@H]3C)cc21 [Example 196, (R)-3-(4-(4-((2R,5R)-2,5-dimethyl-4-((7^1R,7^3S,E)-1^1,1^32^6-trimethyl-3-oxo-5^2,5^3-dihydro-1^1H,5^1H-9-oxa-4-aza-5(2,1)-benzo[d]imidazola-2(2,4)-pyridina-1(4,5)-pyrazola-7(1,3)-cyclopentanacyclononaphane-5^6-yl)piperazin-1-yl)piperidin-1-yl)-2,6-difluorophenyl)piperidine-2,6-dione] |
| 92.81% | 1.76 nM | 1.89 nM | 85.9% | 4.97 nM | 79.9% | 98.27% | 2.49 nM | Cc1cc2cc(n1)-c1c(C)nn(C)c1OC[C@H]1CCC(C1)CN1/C(=N/C2=O)Nc2ccc(N3CCN(CC4CCN(c5cc(F)c([C@H]6CCC(=O)NC6=O)c(F)c5)CC4)[C@H](C)C3)cc21 [Example 134, (R)-3-(2,6-difluoro-4-(4-(((R)-2-methyl-4-((7^1R,7^3S,E)-1^1,1^3,2^6-trimethyl-3-oxo-5^2,5^3-dihydro-1^1H,5^1H-9-oxa-4-aza-5(2,1)-benzo[d]imidazola-2(2,4)-pyridina-1(4,5)-pyrazola-7(1,3)-cyclopentanacyclononaphane-5^6-yl)piperazin-1-yl)methyl)piperidin-1-yl)phenyl)piperidine-2,6-dione] |
| 100.1% | 1 nM | 3.18 nM | 80.7% | 1.92 nM | 85.7% | 97.6% | 16.1 nM | Cc1cc2cc(n1)-c1cnn(C)c1OC[C@H]1CCC(C1)CN1/C(=N/C2=O)Nc2ccc(N3CCN(C4CCN(c5c(F)cc(OC6CCC(=O)NC6=O)cc5F)CC4)CC3)cc21 (stereo partly shown) [Example 111, 3-(4-(4-(4-((7^1R,7^3S,E)-1^1,2^6-dimethyl-3-oxo-5^2,5^3-dihydro-1^1H,5^1H-9-oxa-4-aza-5(2,1)-benzo[d]imidazola-2(2,4)-pyridina-1(4,5)-pyrazola-7(1,3)-cyclopentanacyclononaphane-5^6-1)piperazin-1-yl)piperidin-1-yl)-3,5-difluorophenoxy)piperidine-2,6-dione] |
| 100.56% | 2.37 nM | 3.82 nM | 80% | 2.92 nM | 80.4% | 92% | 4.77 nM | Cc1cc2cc(n1)-c1c(C)nn(C)c1OC[C@H]1CC[C@H](C1)CN1/C(=N/C2=O)Nc2ccc(N3CCN([C@H]4CCN(c5cc(F)c([C@H]6CCC(=O)NC6=O)c(F)c5)C4)CC3)cc21 (single isomer, unassigned) [Example 186] |
| 101.1% | 1 nM | 2.02 nM | 87.2% | 2.24 nM | 78.4% | 93.5% | 10.2 nM | COC[C@@H]1CN(c2ccc3c(c2)N2CC4CC[C@H](COc5c(cnn5C)-c5cc(cc(C)n5)C(=O)/N=C/2N3)C4)CCN1C1CCN(c2ccc(C3CCC(=O)NC3=O)nc2C)CC1 (stereo partly drawn) [Example 73, 3-(5-(4-((S)-4-((7^1R,7^3S,E)-1^1,2^6-dimethyl-3-oxo-5^2,5^3-dihydro-1^1H,5^1H-9-oxa-4-aza-5(2,1)-benzo[d]imidazola-2(2,4)-pyridina-1(4,5)-pyrazola-7(1,3)-cyclopentanacyclononaphane-5^6-yl)-2-(methoxymethyl)piperazin-1-yl)piperidin-1-yl)-6-methylpyridin-2-yl)piperidine-2,6-dione] |
| 101.2% | 1.7 nM | 0.99 nM | 90.4% | 1 nM | 86.2% | 93.3% | 3.2 nM | Cc1cc2cc(n1)-c1c(C)nn(C)c1OC[C@H]1CCC(C1)CN1/C(=N/C2=O)Nc2ccc(N3CCN(C4CCN(c5cc(F)c([C@H]6CCC(=O)NC6=O)c(F)c5)CC4)CC3)cc21 [Example 74, (R)-3-(2,6-difluoro-4-(4-(4-((7^1R,7^3S,E)-1^1,1^3,2^6-trimethyl-3-oxo-5^2,5^3-dihydro-1^1H,5^1H-9-oxa-4-aza-5(2,1)-benzo[d]imidazola-2(2,4)-pyridina-1(4,5)-pyrazola-7(1,3)-cyclopentanacyclononaphane-5^6-yl)piperazin-1-yl)piperidin-1-yl)phenyl)piperidine-2,6-dione] |
| 101.57% | 1.03 nM | 3.04 nM | 93.3% | 1.94 nM | 85.6% | 96.47% | 6.86 nM | COC[C@H]1CN(c2ccc3c(c2)N2C[C@@H]4CC[C@H](COc5c(c(C)nn5C)-c5cc(cc(C)n5)C(=O)/N=C/2N3)C4)CCN1C1CCN(c2ccc(OC3CCC(=O)NC3=O)cc2C)CC1 (stereo partly drawn) [Example 140, 3-(4-(4-((R)-2-(methoxymethyl)-4-((7^1R,7^3S,E)-1^1,1^3,2^6-trimethyl-3-oxo-5^2,5^3-dihydro-1^1H,5^1H-9-oxa-4-aza-5(2,1)-benzo[d]imidazola-2(2,4)-pyridina-1(4,5)-pyrazola-7(1,3)-cyclopentanacyclononaphane-5^6-yl)piperazin-1-yl)piperidin-1-yl)-3-methylphenoxy)piperidine-2,6-dione] |
| 103.08% | 0.796 nM | 4.84 nM | 69.1% | 0.867 nM | 72% | 102.8% | 6.4 nM | Cc1cc2cc(n1)-c1cnn(C)c1OC[C@H]1CCC(C1)CN1/C(=N/C2=O)Nc2ccc(N3CCC(CN4CCC(Nc5cc(F)c([C@H]6CCC(=O)NC6=O)c(F)c5)CC4)CC3)cc21 [Example 131, (R)-3-(4-((1-((1-((7^1R,7^3S,E)-1^1,2^6-dimethyl-3-oxo-5^2,5^3-dihydro-1^1H,5^1H-9-oxa-4-aza-5(2,1)-benzo[d]imidazola-2(2,4)-pyridina-1(4,5)-pyrazola-7(1,3)-cyclopentanacyclononaphane-5^6-yl)piperidin-4-yl)methyl)piperidin-4-yl)amino)-2,6-difluorophenyl)piperidine-2,6-dione] |
| 101% | 0.5 nM | 3.34 nM | 72.3% | 3.07 nM | 87.3% | 107.3% | 6.7 nM | Cc1cc2cc(n1)-c1cnn(C)c1OC[C@H]1CCC(C1)CN1/C(=N/C2=O)Nc2cc(F)c(N3CCN(C4CCN(c5cnc(C6CCC(=O)NC6=O)cc5C)CC4)CC3)cc21 (stereo partly shown) [Example 100, 3-(5-(4-(4-((7^1R,7^3S,E)-5^5-fluoro-1^1,2^6-dimethyl-3-oxo-5^2,5^3-dihydro-1^1H,5^1H-9-oxa-4-aza-5(2,1)-benzo[d]imidazola-2(2,4)-pyridina-1(4,5)-pyrazola-7(1,3)-cyclopentanacyclononaphane-5^6-yl)piperazin-1-yl)piperidin-1-yl)-4-methylpyridin-2-yl)piperidine-2,6-dione] |
| 102.22% | 2.56 nM | 2.96 nM | 80.9% | 3.07 nM | 81.1% | 100.64% | 8.76 nM | Cc1cc2cc(n1)-c1c(C)nn(C)c1OC[C@H]1CC[C@H](C1)CN1/C(=N/C2=O)Nc2ccc(N3CCC(C)(CN(C)C4CCN(c5cc(F)c([C@H]6CCC(=O)NC6=O)c(F)c5)CC4)CC3)cc21 [Example 168, (R)-3-(2,6-difluoro-4-(4-(methyl((4-methyl-1-((7^1R,7^3S,E)-1^1,1^3′2^6-trimethyl-3-oxo-5^2′5^3-dihydro-1^1H,5^1H-9-oxa-4-aza-5(2,1)-benzo[d]imidazola-2(2,4)-pyridina-1(4,5)-pyrazola-7(1,3)-cyclopentanacyclononaphane-5^6-yl)piperidin-4-yl)methyl)amino)piperidin-1-yl)phenyl)piperidine-2,6-dione] |
| 101.4% | 0.3 nM | 0.41 nM | 92.6% | 0.48 nM | 91.7% | 92.7% | 1.1 nM | Cc1cc2cc(n1)-c1c(C)nn(C)c1OC[C@H]1CCC(C1)CN1/C(=N/C2=O)Nc2ccc(N3CCN([C@@H]4CCN(c5ccc(C6CCC(=O)NC6=O)nc5C)C[C@@H]4F)CC3)cc21 (stereo partly drawn) [Example 79, 3-(5-((3S,4R)-3-fluoro-4-(4-((7^1R,7^3S,E)-1^1,1^3,2^6-trimethyl-3-oxo-5^2,5^3-dihydro-1^1H,5^1H-9-oxa-4-aza-5(2,1)-benzo[d]imidazola-2(2,4)-pyridina-1(4,5)-pyrazola-7(1,3)-cyclopentanacyclononaphane-5^6-yl)piperazin-1-yl)piperidin-1-yl)-6-methylpyridin-2-yl)piperidine-2,6-dione] |
